Consider 89 compounds from a melting point compilation (Tetko et al.; mined from patent text by program, amines drawn as free bases though some values may be those of a salt).

Turning to `COc1cc(-c2nc(N3CCNC(C)C3)c3c(C)c(C#N)sc3n2)cc(OC)c1OC` (centres undefined), the melting point fell in the range of 213 to 215 °C.

Compound `O=C(O)CSC(CCCCNS(=O)(=O)c1ccc(Cl)cc1)CCCc1cccnc1` (centres undefined) showed a melting point of 78 to 80 °C.

For `CCOC(=O)CNC(=O)CCC(=O)OC`, the melting point is 61 to 62 °C.

The compound `CCOC(=O)c1cn(-c2ccc(OC)cc2)[nH]c1=O` displayed a melting point of 125 to 127 °C.

As to `CC(=O)NC[C@H]1CN(c2ccc(N3CCN(CCCO)CC3)c(F)c2)C(=O)O1`, the melting point fell in the range of 154 to 156 °C.

Regarding `CN(C)CCc1c(-c2ccc3ccccc3c2)[nH]c2ccccc12`, the melting point was in the range of 185 to 186 °C.

Consider `CCOC(=O)C(C)(C)CCCCCOc1ccc(NC(=O)CCCCCn2ccnc2)cc1`, for which the melting point is 59 °C.

`CCOC(COc1cccc2c1OCCO2)OCC` showed a melting point of 73.1 °C.

The compound `CCS(=O)(=O)Nc1ccc2[nH]cc(C3=CCN(C)CC3)c2c1` registered a melting point of 224 to 226 °C.

`COc1ccc(Nc2cncc(-c3cccc(Nc4ccccn4)c3)c2)cc1` gave a melting point of 161 to 165 °C.

With `CCOC(=O)/C=C/c1cc(-n2ncnn2)cc(C)c1N`, the melting point fell in the range of 162 to 165 °C.

Turning to `O=C(c1ccc(OCCn2ccnc2)cc1)N1CCOCC1`, the melting point lay in the range of 109 to 111 °C.

The compound `CC(c1ccc(N2CCCC2)cc1)c1ccc(N2CCCC2)cc1` yielded a melting point of 112 °C.

With `NC(N)=Nc1nc(-c2ccc(-c3nc(N)n[nH]3)o2)cs1`, the melting point is > 300 °C.

`CN1CCN(c2ncnc3c([N+](=O)[O-])cccc23)C1=O` registered a melting point of 207 to 210 °C.

Consider `CCOC(=O)C1C(Cl)C(=O)N1c1ccc(OC)cc1` (centres undefined), for which the melting point was in the range of 99 to 100 °C.

With `CC(C)CC(CO)NC(=O)c1ccccc1SSc1ccccc1C(=O)NC(CO)CC(C)C` (centres undefined), the melting point was in the range of 195 to 196 °C.

In turn, `CC(=O)OC1(C(C)=O)CCC2C3CCC4=CC(=O)CCC4(C)C3CCC21C` (centres undefined) yielded a melting point of 243 to 245 °C.

Turning to `Cc1ccc(C=C2CCc3cc(OCCc4c[nH]cn4)ccc3C2=O)s1`, the melting point was in the range of 69 to 70 °C.

In turn, `CCOC(=O)Cc1nn(Cc2ccc(Br)c(Cl)c2)c(=S)c2ccccc12` had a melting point of 124 to 126 °C.

The compound `Cc1ncoc1C(C)(O)c1ccccc1C(F)(F)F` (centres undefined) yielded a melting point of 108 to 109 °C.

`COC(=O)[C@H](Cc1ccc(O[Si](C)(C)C(C)(C)C)cc1)NC(=O)Nc1n[nH]c(=S)s1` yielded a melting point of 139 to 142 °C.

`CC(C)(C)[Si](C)(C)Oc1ccccc1-c1cc(-c2cccc([N+](=O)[O-])c2)c(C#N)c(NC(=O)c2cccs2)n1`: the melting point lay in the range of 106 to 108 °C.

In turn, `S=c1ncn(-c2ccc(Cl)cc2)[nH]1` showed a melting point of 222 to 224 °C.

Regarding `Cc1ccc2cccc(OCc3c(Cl)ccc(N(C)C(=O)CNC(=O)C=Cc4ccc(-c5nnn[nH]5)cc4)c3Cl)c2n1`, the melting point fell in the range of 196 to 208 °C.

Consider `O=C1CCN(C(=O)OCc2ccc([N+](=O)[O-])cc2)CC1`, for which the melting point was 123 to 124 °C.

As to `N#CCc1ccc(NC(=O)c2ccc(C=O)cc2)cc1`, the melting point amounted to 194 °C.

Turning to `O=C(O)CN1CCN(CCNC(=O)c2cc3ccc(C4OC(CO)C(O)C(O)C4O)cc3oc2=O)CC1` (centres undefined), the melting point lay in the range of 140 to 143 °C.

In turn, `Cn1c(/C=C/C=O)c(-c2ccccc2)c2ccccc2c1=O` came in with a melting point of 228 °C.

As to `OCCn1c2ccccc2c2c(N3CCCC3)nc(N3CCCC3)nc21`, the melting point amounted to 110 °C.

`CCOC(=O)N1CCN(c2nc(NC3CC3)ccc2[N+](=O)[O-])CC1` yielded a melting point of 100 to 103 °C.

Turning to `NC[C@@H]1CNc2cccc(-c3ccccc3C(F)(F)F)c2O1`, the melting point amounted to 180 °C.

As for `COC1=C(OC)C(=O)C2=C(CCC(CCOc3ccc(NC(C)=O)cc3)CC2)C1=O`, the melting point lay within 151 to 154 °C.

`Cc1cc(S(C)(=O)=O)ccc1-n1nc(C(F)(F)F)cc1-c1ccc(-c2ccco2)cc1`: the melting point is 205 °C.

With `CCn1c(C(C#N)c2cc(C)cc(C#N)c2)c(C(C)C)c(=O)n(COC)c1=O` (centres undefined), the melting point was in the range of 202 to 205 °C.

The compound `c1cc2c3c(cccc3c1)NCN2` returned a melting point of 89 to 93 °C.

In turn, `COc1ccccc1-c1cc(=O)c2ccccc2o1` had a melting point of 97 to 98.5 °C.

In turn, `Cc1c(NC(=O)c2cccnc2NCc2ccc(=O)[nH]c2)cccc1C(F)(F)F` had a melting point of 196 to 201 °C.

`COc1ccc(Oc2ccc(OCc3ccccc3)cc2)c([N+](=O)[O-])c1` yielded a melting point of 88 to 89.5 °C.

Turning to `COCc1cc(C(=O)NC(C)(C)C)c(C(=O)OC)cn1`, the melting point fell in the range of 138 to 142 °C.

Take `O=C1Nc2cccc(O)c2C12COc1cc3c(cc12)OCCO3` (centres undefined): the melting point was > 250 °C.

On to `O=C1CCC(N2Cc3cc(CNC(=O)Nc4cc(Cl)ccc4Cl)ccc3C2=O)C(=O)N1` (centres undefined), for which the melting point fell in the range of 269 to 271 °C.

With `O=C(O)c1ccc(NC(c2ccc(Cl)cc2)c2ccc(Cl)cc2)cc1`, the melting point was 245 to 247 °C.

Turning to `CCCNC(=O)CCCn1c(CCC)nc2c(N)nc3ccccc3c21`, the melting point lay in the range of 161 to 163 °C.

Consider `Cc1c(F)c(F)c(CNc2ccc(O)c(C(=O)O)c2)c(F)c1F`, for which the melting point stood at 212 °C.

`CCOC(=O)CN1C(=O)c2cccc3c(Br)ccc1c23` yielded a melting point of 128 to 130 °C.

`O=C1C=C2CCCCC2N1c1ccc(OCCN2CCOCC2)cc1` (centres undefined): the melting point stood at 96 °C.

As to `CCCCC1(CCCC)C(=O)N(C(C)(C)C)CC(C)(C)N1OC(C)(C)C#N`, the melting point fell in the range of 68 to 74 °C.

`CCOC(=O)C(C)Oc1ccc2c(c1)N(C)C(=O)N(c1ccc(Cl)cc1)S2(=O)=O` (centres undefined) came in with a melting point of 111 to 112 °C.

As for `Cc1ccnc(-c2cncc(OC3SCC(O)C(O)C3O)c2)c1` (centres undefined), the melting point amounted to 166 °C.

`O=[N+]([O-])c1cnc(Oc2cnc3ccccc3c2)c(Cl)c1`: the melting point lay within 123 to 127 °C.

For the compound `CCN(CC)CCOc1ccc2cc3ccc(OCCN(CC)CC)c(Br)c3nc2c1Br`, the melting point was in the range of 66 to 68 °C.

`COC(=O)C(Cc1ccc(O)cc1)NC(=O)C(Cc1ccccc1)NC(=O)c1ccc(OC)cc1` (centres undefined): the melting point fell in the range of 195 to 197 °C.

`COc1ccc2ccc(N3C(=O)c4ccccc4C3OCC(=O)N(C)C)nc2n1` (centres undefined) came in with a melting point of 166 °C.

`CCc1cccc(Nc2nc(NCc3ccc(C)o3)nc(OCC(F)(F)F)n2)c1` yielded a melting point of 55 to 57 °C.

Turning to `COC(=O)c1sc(-c2ccc(OC)cc2)cc1NC(C)=O`, the melting point was 148 to 149 °C.

Compound `CCOC(=O)c1cc2n(c1)CN(C(=O)OCC)c1c(OC)cccc1-2` returned a melting point of 172 to 174 °C.

In the case of `CC(C)(C)OC(=O)N1CCC(Oc2cncc(Cl)n2)CC1`, the melting point was 86 to 87 °C.

Take `CCc1cnc2c(NC(=O)c3c(Cl)cccc3Cl)cccc2c1CCC(N)=O`: the melting point lay in the range of 235 to 236 °C.

Turning to `CCOC(=O)c1c(C(C)(C)O)nc(SCC)n1Cc1ccc(-c2ccccc2-c2nnn[nH]2)cc1`, the melting point was 185 to 188 °C.

As to `CCC(=O)N[C@@H](C)C(=O)N[C@@H](C)C(=O)NC1CCCCC1`, the melting point fell in the range of 299 to 300 °C.

`CCCCCC(Br)C(Br)CC(Br)C(Br)CCCCCCCBr` (centres undefined): the melting point lay in the range of 62 to 64 °C.

`CCCc1nc2c(N)nc3cc(OCCCNS(=O)(=O)CCc4cccc5ccccc45)ccc3c2n1CC(C)C` returned a melting point of 164 to 168 °C.

For the compound `Cc1ccnc(C)c1NC(=O)NCCCl`, the melting point fell in the range of 122 to 124 °C.

`Cc1nc(-c2cc([N+](=O)[O-])ccc2F)cs1` returned a melting point of 160 to 162 °C.

The compound `CCCCCC(=O)NCCCC(=NNC(N)=S)c1ccccc1` registered a melting point of 125 to 127 °C.

In the case of `CC(C)(C)C(=O)Oc1ccc(C(=O)CBr)cc1OC(=O)C(C)(C)C`, the melting point was 64 to 66 °C.

On to `COc1ccccc1C1=CC(C)(C)Oc2ccc(C#N)cc21`, for which the melting point is 109 to 111 °C.

In turn, `Cc1cc(SCc2sc(-c3ccc(C(F)(F)F)cc3)nc2C)c2c(c1OCC(=O)O)CCO2` gave a melting point of 157 to 158 °C.

Consider `CC(=O)c1ccc(OCCCN2CCC(c3noc4cc(F)ccc34)CC2)c(Br)c1`, for which the melting point lay within 126 to 128 °C.

For the compound `CC1(C)C(C=C(C#N)c2ccccc2)C1C(=O)O` (centres undefined), the melting point is 186 to 188 °C.

Consider `COC(=O)c1ccc2c(c1)c1cc(-c3ccc(C=O)cc3)c(=O)n(C)c1n2C`, for which the melting point was 230 °C.

The compound `Clc1ccc(-c2ccccc2Cl)nn1` had a melting point of 145 to 147 °C.

`CC(=O)Nc1nc2c(s1)-c1nc(-c3ccccc3Cl)ncc1C2` displayed a melting point of 257 °C.

With `CC1(C)COc2ccc(Cl)cc21`, the melting point lay within 64 to 66 °C.

Regarding `CCCCCOC1CCN(S(=O)(=O)C=Cc2ccccc2)C1=O` (centres undefined), the melting point was in the range of 66 to 68 °C.

`CCOC(=O)c1nnc2ccc(NCCCN3CCC(OC(c4ccccc4)c4ccccc4)CC3)nn12` displayed a melting point of 129 to 133 °C.

The compound `CCOc1cc2c(cc1OCC)C(C(C#N)SCCO)=NCC2` (centres undefined) had a melting point of 94 to 96 °C.

In the case of `COC(=O)CCc1cc(C(C)(C)C)c(O[Si](C)(C)Oc2c(C(C)(C)C)cc(CCC(=O)OC)cc2C(C)(C)C)c(C(C)(C)C)c1`, the melting point is 122 to 129 °C.

In turn, `Cn1cnc(COc2nn3c(-c4ccccc4F)nnc3cc2C2(C)CCOCC2)n1` showed a melting point of 154 °C.

The compound `[N-]=[N+]=NCC(O)c1cc(S(N)(=O)=O)ccc1F` (centres undefined) displayed a melting point of 86 °C.

`COC(=O)c1ccc(-c2ccc(-c3cn([C@H]4CN5CCC4CC5)nn3)s2)cc1Cl` gave a melting point of 200 °C.

On to `CN1CCN(c2cccc3ccc(O)cc23)CC1`, for which the melting point was found to be 112 °C.

With `CS(=O)(=O)N(Cc1ccc(F)cc1)c1cccnc1`, the melting point fell in the range of 93 to 95 °C.

For the compound `Brc1cnc2c(Br)cncc2c1`, the melting point is 186 to 188 °C.

For `CS(=O)(=O)Nc1cccc(C2=Nc3ccc(-c4ccc(F)cc4)cc3NC(=O)C2)c1`, the melting point is 232 to 235 °C.

Compound `Cc1cc(N)c(NC(=O)OC(C)(C)C)cc1C(F)(F)F` came in with a melting point of 144 °C.

Compound `Cc1nccn1-c1nc(-c2ccc(Cl)cc2)c(CCCO)o1` yielded a melting point of 128 to 129 °C.

The compound `c1ccc2c(c1)Oc1ccccc1C2NCCn1ccnc1` registered a melting point of 90 to 92 °C.
